Experimental data: patent US20130344157A1, “ENHANCEMENT OF THE EFFICACY OF THERAPEUTIC PROTEINS” (North-West University, priority 2007, published 2013)

Legend:
blood glucose levels [1] = experiment: Decrease in % blood glucose levels after intra-gastric administration; assay type: in vivo, Male Sprague Dawley rats; conditions: 50 IU/kg
blood glucose levels [2] = experiment: Decrease in % blood glucose levels after intra-ileal administration; assay type: in vivo, Male Sprague Dawley rats; conditions: 50 IU/kg
blood glucose levels [3] = experiment: % blood glucose decrease after intranasal administration; assay type: in vivo, Male Sprague Dawley rats; conditions: for Tmax of % blood glucose decrease: sampling times in minutes
Protocol: The cannulation of the carotis communis artery for the collection of blood samples was also performed as described in Example 1 as was the determination of plasma levels and blood glucose levels.

[4] = rat, in vivo
Protocol: Male Sprague Dawley rats with a body mass of between 240 and 336 g were used as experimental in vivo model to investigate the absorption and efficacy enhancing capabilities of the current invention.
In this study, insulin was directly administered into the stomach, ileum or duodenum of the animals. […] Six animals were used for each group in the study. Rats were fasted 18 hours prior to drug administration but water was supplied ad libitum. […] The conditions under which the rats were bred and kept were 21° C. with a relative humidity of 55%, a light intensity of between 350-400 lux one meter above floor level with light cycles of 12 hours light and 12 dark and 18 air changes per minute.
Subcutaneous injection of insulin in one group was used to validate assaying procedures. The normal rat glucose and insulin profile was determined in a group that received only saline; this group acted as biological reference.
Cannulation of the artery carotis communis, ensured that sufficient blood volumes from the same rat at different time intervals could be obtained for analysis. Anaesthesia was induced by halothane and lasted for ±3 hours. All surgical procedures necessary for the cannulation of the carotis communis were carried out while the rats were under anaesthesia. […]

Substance: Insulin in saline: Control: recombinant human insulin (Sigma-Aldrich) in saline solution without any enhancing agent
- AUC, decrease in the % of blood glucose levels (blood glucose levels [1]): 275.5
- Tmax, decrease in the % of blood glucose levels (blood glucose levels [1]): 30 min
- AUC, decrease in the % of blood glucose levels (blood glucose levels [2]): 13.81
- Tmax, decrease in the % of blood glucose levels (blood glucose levels [2]): 10 min
- AUC of % blood glucose decrease (blood glucose levels [3]; 8 IU/kg): 46
- Cmax of % blood glucose decrease (blood glucose levels [3]; 8 IU/kg): 10.03%
- Tmax of % blood glucose decrease (blood glucose levels [3]; 8 IU/kg): 15
- % blood glucose decrease (blood glucose levels [3]; 8 IU/kg, time 0 min): 0%
- % blood glucose decrease (blood glucose levels [3]; 8 IU/kg, time 5 min): −1.18%
- % blood glucose decrease (blood glucose levels [3]; 8 IU/kg, time 10 min): 5.58%
- % blood glucose decrease (blood glucose levels [3]; 8 IU/kg, time 15 min): 10.033%
- % blood glucose decrease (blood glucose levels [3]; 8 IU/kg, time 30 min): 5.27%
- % blood glucose decrease (blood glucose levels [3]; 8 IU/kg, time 60 min): 3.47%
- % blood glucose decrease (blood glucose levels [3]; 8 IU/kg, time 120 min): 2.05%
- % blood glucose decrease (blood glucose levels [3]; 8 IU/kg, time 180 min): −26.58%
- AUC of % blood glucose decrease (blood glucose levels [3]; 12 IU/kg): 32.2
- Cmax of % blood glucose decrease (blood glucose levels [3]; 12 IU/kg): 6.48%
- Tmax of % blood glucose decrease (blood glucose levels [3]; 12 IU/kg): 5
- % blood glucose decrease (blood glucose levels [3]; 12 IU/kg, time 0 min): 0%
- % blood glucose decrease (blood glucose levels [3]; 12 IU/kg, time 5 min): 6.48%
- % blood glucose decrease (blood glucose levels [3]; 12 IU/kg, time 10 min): −0.08%
- % blood glucose decrease (blood glucose levels [3]; 12 IU/kg, time 15 min): −4.4%
- % blood glucose decrease (blood glucose levels [3]; 12 IU/kg, time 30 min): −8.32%
- % blood glucose decrease (blood glucose levels [3]; 12 IU/kg, time 60 min): −13.98%
- % blood glucose decrease (blood glucose levels [3]; 12 IU/kg, time 120 min): −30.7%
- % blood glucose decrease (blood glucose levels [3]; 12 IU/kg, time 180 min): −40.55%
- Tmax [4]: 5 min
